Reference: paper PMC5036131, “Fragment-based discovery of a new family of non-peptidic small-molecule cyclophilin inhibitors with potent antiviral activities” (Nature Communications, 2016)

Tests used:
CypB = target: T1, CypB (Homo sapiens, UniProt P23284); test: biochemical; type: biochemical; conditions: PPIase enzyme assay, 20 °C, mean±s.d.; read-out: CypB IC50
T1 construct: hexahistidine tag (His-Tag) (C); made in house; host or cells: E. coli C41(DE3)
Procedure: CypA and CypB proteins carrying a hexahistidine tag (His-Tag) at their carboxy terminus were expressed in E. coli and purified. Briefly, cultures of C41(DE3) cells were grown at 37 °C for 1 h until the culture reached an OD of 0.6 at 600 nm and then induced with 1 mM isopropyl-β-D-thiogalactopyranoside for 4 h at 37 °C (CypA) or overnight at 22 °C (CypB). Cell pellets were resuspended in a lysis buffer 20 mM NaH2PO4 pH 7.8, 300 mM NaCl, 7 mM β-mercaptoethanol, 1 mg ml^−1 lysozyme, 0.1 U μl^−1 desoxyribonuclease and complete protease inhibitor tablets (Roche Diagnostics Corporation, Indianapolis, Indiana). […] The bound protein was eluted in 1 ml fractions with a buffer composed of 20 mM NaH2PO4 pH 7.8, 300 mM NaCl, 250 mM imidazole, 7 mM β-mercaptoethanol and 10% glycerol, monitored by the Bradford colorimetric assay. The purity of each cyclophilin was determined by Coomassie-stained SDS–PAGE analysis.

Kinetic solubility = type: physicochemical; conditions: target concentration 100 μM, 24 h; for Solubility HCl (pH 1.0): 0.1 N HCl pH 1.0
Procedure: The solutions were incubated at room temperature with shaking for 24 h and were then centrifuged, and the recovered supernatants assayed by HPLC with diode array ultraviolet/visible detection. Solubility values were calculated by comparing the amount (by chromatographic peak area) of compound detected in the defined test solution with an unextracted standard. Relative chemical stabilities of compounds after 24 h incubation in PBS at 37 °C were also determined. The solubility and chemical stability of a quality-control compound (amprenavir) were determined in parallel.

CYP1A2 = target: T2, CYP1A2 (Homo sapiens, UniProt P05177); test: Metabolism by recombinant human cytochrome P450, CYP1A2; type: in vitro ADME; conditions: recombinant enzyme
T2 sequence (P05177 1-516): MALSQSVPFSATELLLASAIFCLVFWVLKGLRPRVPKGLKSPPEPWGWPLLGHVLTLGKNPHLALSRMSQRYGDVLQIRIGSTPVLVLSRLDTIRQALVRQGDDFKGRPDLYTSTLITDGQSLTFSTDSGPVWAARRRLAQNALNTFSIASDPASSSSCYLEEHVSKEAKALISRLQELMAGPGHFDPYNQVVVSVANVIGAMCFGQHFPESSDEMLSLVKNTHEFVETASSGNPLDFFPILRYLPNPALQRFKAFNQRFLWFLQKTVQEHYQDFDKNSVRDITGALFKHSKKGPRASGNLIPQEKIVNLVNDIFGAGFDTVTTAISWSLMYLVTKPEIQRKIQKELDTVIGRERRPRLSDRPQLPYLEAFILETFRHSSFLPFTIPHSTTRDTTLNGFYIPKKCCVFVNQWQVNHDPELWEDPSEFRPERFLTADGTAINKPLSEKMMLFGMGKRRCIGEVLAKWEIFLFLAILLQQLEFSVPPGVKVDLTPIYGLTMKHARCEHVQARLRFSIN
Procedure: […] of compound was incubated with individual bacterially expressed recombinant human cytochromes P450 co-expressed with human NADPH cytochrome P450 reductase. […] Enzyme-selective positive control substrates were tested in parallel.

CYP3A4 = target: T3, CYP3A4 (Homo sapiens, UniProt P08684); test: Cytochrome P450 enzyme inhibition assay, CYP3A4; type: in vitro ADME; conditions: human hepatic microsomal fractions, up to 25 μM
T3 construct: incubated with human hepatic microsomal fractions and NADPH; from tissue; host or cells: human hepatic microsomal fractions
Procedure: Up to 25 μM of compounds 29 and 30 was incubated with human hepatic microsomal fractions and NADPH in the presence of individual probe substrates. All assays were designed so that conditions were linear with respect to time and protein concentration. Substrates were present at concentrations equal to or lower than their respective Km values. Enzyme selective products were determined by fluorometry (ethoxyresorufin O-deethylase) or by specific LC-MS/MS assays. Relative enzyme activities were determined by comparison with those assayed with DMSO vehicle instead of inhibitor. IC50 values were calculated by nonlinear curve fitting using a sigmoidal model. Positive control inhibitors for each enzyme were tested in parallel.

MT4 cells = test: Cytotoxicity in uninfected MT4 cells; conditions: read-out: MT4 cells CC50

T3 sequence (P08684 2-503): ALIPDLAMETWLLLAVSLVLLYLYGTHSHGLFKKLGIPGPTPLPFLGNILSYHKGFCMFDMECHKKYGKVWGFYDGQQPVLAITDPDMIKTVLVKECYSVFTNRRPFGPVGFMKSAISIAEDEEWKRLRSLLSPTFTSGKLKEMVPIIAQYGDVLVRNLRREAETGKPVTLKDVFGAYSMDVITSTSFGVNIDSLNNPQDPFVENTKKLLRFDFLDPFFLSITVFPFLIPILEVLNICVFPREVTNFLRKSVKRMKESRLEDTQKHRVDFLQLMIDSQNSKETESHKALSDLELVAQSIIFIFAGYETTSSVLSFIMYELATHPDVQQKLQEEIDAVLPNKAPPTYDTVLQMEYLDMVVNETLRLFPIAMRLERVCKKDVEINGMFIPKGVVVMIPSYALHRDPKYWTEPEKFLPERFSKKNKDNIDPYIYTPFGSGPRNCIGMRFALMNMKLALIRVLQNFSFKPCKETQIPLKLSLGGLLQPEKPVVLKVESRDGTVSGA
T1 sequence (P23284 34-216): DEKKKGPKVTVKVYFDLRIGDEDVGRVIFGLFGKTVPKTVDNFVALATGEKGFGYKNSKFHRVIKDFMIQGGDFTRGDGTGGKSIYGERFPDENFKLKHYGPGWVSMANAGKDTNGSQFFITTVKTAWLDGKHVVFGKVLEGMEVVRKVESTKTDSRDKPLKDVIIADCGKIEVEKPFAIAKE

## CSCCC(NC(=O)NCc1ccc(N)cc1)C(=O)N1CCCC1c1ccccc1SC.O=C(O)C(F)(F)F (stereo not shown) [Compound 30]
CypB
  IC50: 1900 ± 1500 nM
Kinetic solubility
  Solubility HCl (pH 1.0): > 100
  Solubility PBS (pH 7.4): > 100
Kinetic solubility; listed as compound 30
  Solubility HCl (pH 1.0): very soluble
  Solubility PBS (pH 7.4): very soluble
CYP1A2
  Rate of metabolism by human cytochrome P450 CYP1A2: < 0.12 pmol/pmol P450/min
CYP1A2; listed as compound 30
  Rate of metabolism by human cytochrome P450 CYP1A2: Neither compound 29 nor compound 30 was metabolized
CYP3A4
  IC50: 600 nM
  Inhibition of cytochrome P450 activity, IC50 CYP3A4: potent inhibitors
MT4 cells
  CC50: > 53000 nM
